Reference: ChEMBL document CHEMBL1149987, “Synthesis and biological evaluation of new arachidonic acid analogs” (Bioorg Med Chem Lett, 1994)

Tests used:
[1] = target: T1, Polyunsaturated fatty acid 5-lipoxygenase (Homo sapiens, UniProt P09917); assay: Compound was tested for the inhibition of 5-lipoxygenase of human PMN stimulated by calcium ionophore A-23187 for the formation of 5-HETE
T1 sequence (P09917 whole entry): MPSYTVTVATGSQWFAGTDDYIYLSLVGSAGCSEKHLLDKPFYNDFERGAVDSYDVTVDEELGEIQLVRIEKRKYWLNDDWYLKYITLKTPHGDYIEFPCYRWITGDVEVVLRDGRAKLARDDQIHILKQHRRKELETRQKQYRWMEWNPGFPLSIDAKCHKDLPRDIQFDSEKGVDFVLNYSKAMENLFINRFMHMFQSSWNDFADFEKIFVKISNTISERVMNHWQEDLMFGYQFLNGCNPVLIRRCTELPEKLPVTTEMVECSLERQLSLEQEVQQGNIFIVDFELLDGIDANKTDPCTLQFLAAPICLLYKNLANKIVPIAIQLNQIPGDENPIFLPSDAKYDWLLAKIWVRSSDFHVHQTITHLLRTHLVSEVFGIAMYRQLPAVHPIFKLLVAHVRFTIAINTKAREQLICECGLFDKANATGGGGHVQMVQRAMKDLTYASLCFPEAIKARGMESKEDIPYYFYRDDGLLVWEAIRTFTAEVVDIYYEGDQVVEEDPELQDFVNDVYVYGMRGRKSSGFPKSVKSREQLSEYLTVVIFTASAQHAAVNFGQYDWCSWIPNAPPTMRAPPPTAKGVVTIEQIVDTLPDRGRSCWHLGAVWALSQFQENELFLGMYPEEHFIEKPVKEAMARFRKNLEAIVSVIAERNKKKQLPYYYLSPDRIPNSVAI

[2] = target: T1, Polyunsaturated fatty acid 5-lipoxygenase; assay: Compound was tested for the inhibition of 5-lipoxygenase of human PMN stimulated by calcium ionophore A-23187 for the formation of leukotriene B4 (LTB4)

IC50 [1]	IC50 [2]	SMILES
1700 nM	2400 nM	CCCCC/C=C\C/C=C\[C@@H]1C[C@H]1/C=C\C/C=C\CCCC(=O)O (stereo in doubt; (-)-7a)
2900 nM	2800 nM	CCCCC/C=C\C/C=C\[C@@H]1C[C@H]1/C=C\C/C=C\CCCC(=O)O (stereo in doubt; (+)-7a)
1000 nM	1600 nM	CCCCC/C=C\C/C=C\[C@@H]1CC(C)=C(C)C[C@H]1/C=C\C/C=C\CCCC(=O)O
1100 nM	1900 nM	CCCCC/C=C\C/C=C\[C@H]1CC(C)=C(C)C[C@H]1/C=C\C/C=C\CCCC(=O)O
